In US20240279227A1, “FUSED HETEROCYCLIC DERIVATIVES” (Janssen Sciences Ireland Unlimited Company, priority 2021, published 2024):

Legend:
HBV = assay: Anti-HBV activity in HepG2.117 cell line (intracellular HBV DNA, real-time PCR); type: cell-based, hepatitis B virus; settings: HepG2.117 cells, HBV replication induced, 3 days of treatment, intracellular HBV DNA by real-time PCR
Method in brief: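 HepG2.117 cells (Tet-off, doxycycline-free HBV replication) induced for HBV replication, then exposed to serially diluted compound for 3 days. Intracellular HBV DNA quantified by real-time PCR with HBV-specific primers and probe.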

[1] = Human liver microsome stability; type: in vitro ADME; settings: 1 μM compound, NADPH 1 mM, pH 7.4, 37° C., 0-60 min; for HLM Metabolism t1/2: pooled human liver microsomes 0.5 mg/mL; for half-life at 1 μM: human, pooled human liver microsomes, pH 7.4, pooled human liver microsomes 0.5 mg/mL, read-out: HLM Metabolism t1/2
Method in brief: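 Pooled human liver microsomes (0.5 mg/mL) incubated at 37 °C with 1 μM compound in 0.1 M phosphate pH 7.4, 1 mM MgCl2; 1 mM NADPH starts reaction. Samples quenched in acetonitrile at 0–60 min, analysed by LC-MS against internal standard; half-life from slope of ln peak-area ratio versus time.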

HepG2 or HepG2.117 cells = assay: Cytotoxicity, ATPlite Luminescence Assay; type: cell-based, human; settings: 3-days incubation unless marked with *, ATPlite viability
Method in brief: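 Cells were exposed to compounds for 3 or 4 days, after which viability was determined by ATP-based luminescence (ATPlite).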

| SMILES | EC50 (HBV) [µM] | HLM Metabolism t1/2 [1] [min] | CC50 (HepG2 or HepG2.117 cells) [µM] | half-life at 1 μM [1] [min] | EC50 (HBV; Hepatitis B virus, HepG2.117, 72 h) [µM] |
| --- | --- | --- | --- | --- | --- |
| CNC(=O)[C@@H]1CN(C(C)c2ccc(-n3nnc(C)n3)cc2)C(=O)c2c3c(nn21)C[C@@H](C)N(C(=O)c1ccc(Cl)c(Cl)c1)C3 (single isomer, unassigned) [Compound 30B, (3R,7S)-2-(3,4-dichlorobenzoyl)-N,3-dimethyl-9-((S*)-1-(4-(5-methyl-2H-tetrazol-2-yl)phenyl)ethyl)-10-oxo-1,2,3,4,7,8,9,10-octahydropyrido[4′,3′:3,4]pyrazolo[1,5-a]pyrazine-7-carboxamide] | 0.017 | 90.9 | 17.2 |  |  |
| CNC(=O)[C@@H]1CN(C(C)c2ccc(-n3cncn3)cn2)C(=O)c2c3c(nn21)C[C@@H](C)N(C(=O)c1ccc(Cl)c(Cl)c1)C3 (single isomer, unassigned) [Compound 40B, (3R,7S)-9-((S*)-1-(5-(1H-1,2,4-triazol-1-yl)pyridin-2-yl)ethyl)-2-(3,4-dichlorobenzoyl)-N,3-dimethyl-10-oxo-1,2,3,4,7,8,9,10-octahydropyrido[4′,3′:3,4]pyrazolo[1,5-a]pyrazine-7-carboxamide] | 0.097 | >180 | > 50 |  |  |
| CNC(=O)[C@@H]1CN(C(C)c2ccc(OC(F)F)nc2)C(=O)c2c3c(nn21)C[C@@H](C)N(C(=O)c1ccc(Cl)c(Cl)c1)C3 (single isomer, unassigned) [Compound 11A, (3R,7S)-2-(3,4-Dichlorobenzoyl)-9-((R*)-1-(6-(difluoromethoxy)pyridin-3-yl)ethyl)-N,3-dimethyl-10-oxo-1,2,3,4,7,8,9,10-octahydropyrido[4′,3′:3,4]pyrazolo[1,5-a]pyrazine-7-carboxamide] | 0.12 |  | > 50 | > 180 |  |
| CNC(=O)[C@@H]1CN(C(C)c2cnc(C(F)(F)F)nc2)C(=O)c2c3c(nn21)C[C@@H](C)N(C(=O)c1ccc(Cl)c(C(F)(F)F)c1)C3 (single isomer, unassigned) [Compound 43B, (3R,7S)-2-(4-chloro-3-(trifluoromethyl)benzoyl)-N,3-dimethyl-10-oxo-9-((S*)-1-(2-(trifluoromethyl)pyrimidin-5-yl)ethyl)-1,2,3,4,7,8,9,10-octahydropyrido[4′,3′:3,4]pyrazolo[1,5-a]pyrazine-7-carboxamide] | 0.057 | >180 | > 50 |  |  |
| CNC(=O)[C@@H]1CN(C(C)c2ccc(-n3ncnc3C)cn2)C(=O)c2c3c(nn21)C[C@@H](C)N(C(=O)c1ccc(Cl)c(Cl)c1)C3 (single isomer, unassigned) [Compound 41B, (3R,7S)-2-(3,4-dichlorobenzoyl)-N,3-dimethyl-9-((S*)-1-(5-(5-methyl-1H-1,2,4-triazol-1-yl)pyridin-2-yl)ethyl)-10-oxo-1,2,3,4,7,8,9,10-octahydropyrido[4′,3′:3,4] pyrazolo[1,5-a]pyrazine-7-carboxamide] | 0.1 | >180 | > 50 |  |  |
| CNC(=O)[C@@H]1CN(C(C)c2ccc(C(F)F)nc2)C(=O)c2c3c(nn21)C[C@@H](C)N(C(=O)c1ccc(Cl)c(Cl)c1)C3 (single isomer, unassigned) [Compound 36B, (3R,7S)-2-(3,4-dichlorobenzoyl)-9-((S*)-1-(6-(difluoromethyl)pyridin-3-yl)ethyl)-N,3-dimethyl-10-oxo-1,2,3,4,7,8,9,10-octahydropyrido[4′,3′:3,4]pyrazolo[1,5-a]pyrazine-7-carboxamide] | 0.05 | >180 | > 50 |  |  |
| CNC(=O)[C@@H]1CN(C(C)c2ccc(OC(F)F)nc2)C(=O)c2c3c(nn21)C[C@@H](C)N(C(=O)c1ccc(Cl)c(Cl)c1)C3 (single isomer, unassigned) [Compound 11B, (3R,7S)-2-(3,4-dichlorobenzoyl)-9-((S*)-1-(6-(difluoromethoxy)pyridin-3-yl)ethyl)-N,3-dimethyl-10-oxo-1,2,3,4,7,8,9,10-octahydropyrido[4′,3′:3,4]pyrazolo[1,5-a]pyrazine-7-carboxamide] | 0.052 | >180 | 23.4 |  |  |
| CC(c1ccc(OC(F)F)nc1)N1C[C@@H](C(N)=O)n2nc3c(c2C1=O)CN(C(=O)c1ccc(Cl)c(Cl)c1)[C@H](C)C3 (single isomer, unassigned) [Compound 12B, (3R,7S)-2-(3,4-dichlorobenzoyl)-9-((S*)-1-(6-(difluoromethoxy)pyridin-3-yl)ethyl)-3-methyl-10-oxo-1,2,3,4,7,8,9,10-octahydropyrido[4′,3′:3,4]pyrazolo[1,5-a]pyrazine-7-carboxamide] | 0.027 | >180 | 27.4 |  |  |
| CNC(=O)[C@@H]1CN(C(C)c2ccc(-n3nnc(C)n3)cc2)C(=O)c2c3c(nn21)C[C@@H](C)N(C(=O)c1ccc(Cl)c(Cl)c1)C3 (single isomer, unassigned) [Compound 30A, (3R,7S)-2-(3,4-Dichlorobenzoyl)-N,3-dimethyl-9-((R*)-1-(4-(5-methyl-2H-tetrazol-2-yl)phenyl)ethyl)-10-oxo-1,2,3,4,7,8,9,10-octahydropyrido[4′,3′:3,4]pyrazolo[1,5-a]pyrazine-7-carboxamide] |  |  | > 50 | > 180 | 0.016 |
| CNC(=O)[C@@H]1CN(C(C)c2ccc(C3CC3)nc2)C(=O)c2c3c(nn21)C[C@@H](C)N(C(=O)c1ccc(Cl)c(Cl)c1)C3 (single isomer, unassigned) [Compound 32B, (3R,7S)-9-((S*)-1-(6-cyclopropylpyridin-3-yl)ethyl)-2-(3,4-dichlorobenzoyl)-N,3-dimethyl-10-oxo-1,2,3,4,7,8,9,10-octahydropyrido[4′,3′:3,4]pyrazolo[1,5-a]pyrazine-7-carboxamide] | 0.011 | >180 | 48.7 |  |  |
| CNC(=O)[C@@H]1CN(C(C)c2ccc(OC(F)F)c(F)c2)C(=O)c2c3c(nn21)C[C@@H](C)N(C(=O)c1ccc(Cl)c(Cl)c1)C3 (single isomer, unassigned) [Compound 24B, (3R,7S)-2-(3,4-dichlorobenzoyl)-9-((S*)-1-(4-(difluoromethoxy)-3-fluorophenyl)ethyl)-N,3-dimethyl-10-oxo-1,2,3,4,7,8,9,10-octahydropyrido[4′,3′:3,4]pyrazolo[1,5-a]pyrazine-7-carboxamide] | 0.013 | >180 | 25.5 |  |  |
